In brackets after ≈: the same amount, converted by molar mass. Like-named read-outs stand apart in the source and are kept apart here.
Key:
in vivo = experiment: in vivo; design: species or system Swiss-Webster mice; details: mouse, ip
Procedure: Example 2 provides a summary of two pharmacokinetic studies of Biapenem conducted in Swiss-webster mice. The pharmacokinetics of 100 mg/kg and 25 mg/kg of Biapenem via the intraperitoneal route was discussed below.
Biapenem power was purchased from Hisun Pharmaceuticals. 20 mg of Biapenem was dissolved in 0.1 M NaH2PO4 for a basic stock solution. For animal studies, this stock solution was further diluted in 0.9% saline to the appropriate concentration.
The specifications for animals used on this study were as follows: • Species: Mouse • Strain: CFW (Swiss) • Gender: Female • Source: Harlan Laboratories (Livermore, Calif.) • Number of Animals: 33 for each dose • Body Weight Range: 18-22 g at the start of the study
After acclimation, mice were administered a single intraperitoneal dose of biapenem at 25 or 100 mg/kg. […] Blood samples (one sample per animal) were collected by cardiac puncture in a heparin containing tube. The collected heparin tubes were centrifuged within 5 min of collection at 12000 g for 5 min to obtain plasma. The plasma samples were stored on −80° C. until analyzed.
Biapenem standard curves were prepared in 50% plasma-50% 1M MOPS buffer, pH=7.4 from 1 to 250 ug/mL. 20 uL of sample or standard was added into a 96-well deep well plate. Then 500 uL of 10% water-45% methanol-45% acetonitrile containing 2 ug/mL of meropenem was used as an internal standard. The plate was vortexed for 15 min. at 3,000 RPM. 50 uL of supernatant was removed and added 300 uL of water. 10 uL of samples were injected onto an HPLC-MS system for quantification.
The HPLC-MS conditions for the Biapenem plasma analysis are as follows: • Column: Supelco Discovery HS F5 or equivalent pentafluorophenyl column, 5 um, 50×2.1 mm. • Flow rate: 0.6 mL/min. • Mobile phase A: 0.1% formic acid in water. • Mobile phase B: 0.1% formic acid in acetonitrile. • Gradient: 5-70% B in 1.9 min. • Mass spectrometer: Positive ion mode with electrospray ionization. • MS/MS: Biapenem-Q1-m/e=350.8, Q3-m/e=110.1. • meropenem-Q1-m/e=384.1, Q3-m/e=141.1.
Serum concentrations were determined using HPLC. Serum concentrations were fit by using Non-compartmental model of WinNonlin Software (Pharsight. Version 5.3, Mountain View, Calif.).

[1] = test system: carbapenem-resistant, KPC-producing K. pneumoniae; experiment: Mouse model of thigh infection, Biapenem +/- Compound I (Example 6); assay type: in vivo; details: IP 50 mpk Biapenem +/- 50 mpk Compound I every two hours for 24 hours
Procedure: Example 6 provides the in vivo efficacy study of the carbapenem Biapenem in combination with Compound I in mouse models of pulmonary and thigh infection due to the carbapenem-resistant, KPC-producing K. pneumoniae.
Four K. pneumoniae strains with Biapenem MICs ranging between 0.25-64 mg/L were used. Neutropenic mice were infected with ˜10^5 CFU/lung or ˜10^6 CFU/thigh. Intraperitoneal treatments with 50 mpk Biapenem+/−50 mpk Compound I were initiated 2 hours post-infection as a single dose or continued every two hours for 24 hours. Mice were sacrificed on designated time points and colony counts in tissue determined.

K. pneumoniae strains = experiment: Biapenem MICs of the K. pneumoniae strains used in the infection models (Example 6); assay type: cell-based; details: Klebsiella pneumoniae
KPC-producing strains = experiment: Time-kill assays of Biapenem with Compound I (Example 4); assay type: cell-based, Enterobacteriaceae; details: KPC-producing strains (Biapenem MICs of 16-32 ug/ml)
Procedure: The evaluation of Compound I in combination with the carbapenem antibiotic Biapenem against multi-drug resistant strains of Enterobacteriaceae, including those producing serine carbapenemases were also conducted. Antibiotic potentiation activity of Compound I was studied in checkerboard MIC experiments and time-kill assays. The MICs of Biapenem were determined alone or in combination with Compound I added at fixed concentrations between 0.5 and 16 ug/ml) against characterized and engineered isolates producing various beta-lactamases, as well as in geographically diverse panels of multi-drug resistant strains of Enterobacteriaceae (including strains that express the most relevant beta-lactamases).

[2] = Single-dose pharmacokinetics of Compound I, intraperitoneal administration to Swiss-Webster mice (Example 5); assay type: in vivo; details: plasma, Mouse; for CL/F: read-out: CL or CL/F (converted)
Procedure: (§1) Example 5 provides the single-dose pharmacokinetic studies of Compound I inpreclinical species, including intraperitoneal administration to Swiss-Webster mice and intravaneous administration to Sprague-Dawley rats, Beagle dogs, and Cynomologus monkeys.
(§2) Intravaneous doses of Compound I were administered as 30-minute infusions. The pharmacokinetics of Compound I were also studied with coadministration of the carbapenem, Biapenem. Compound I concentrations were determined using an LC-MS detection method.

[3] = Single-dose pharmacokinetics of Compound I, intravenous 30-minute infusion in Cynomologus monkeys (Example 5); assay type: in vivo; details: Monkey; for half-life / AUC / Cmax: in vivo
Procedure: as §1, §2

[4] = Single-dose pharmacokinetics of Compound I across all preclinical species, summary statements incl. coadministration of Biapenem (Example 5); assay type: in vivo
Procedure: as §1, §2

[5] = female, CFW (Swiss-Webster), 25 mg/kg
[6] = female, CFW (Swiss-Webster), 100 mg/kg
[7] = female, CFW (Swiss-Webster), 100 mg/kg, Calc. Conc. (plasma concentration)

With `C[C@@H](O)[C@H]1C(=O)N2C(C(=O)[O-])=C(SC3Cn4cnc[n+]4C3)[C@H](C)[C@H]12` (some centres unmarked) [Biapenem] as the molecule, how does the Cl (in vivo; [5]) read?
The Cl was 1.6 L/h/kg.

What about the Cmax (in vivo; [5]) of the same molecule?
Its Cmax is 31.2 µg/mL.

And the half-life (in vivo; [5])?
The half-life was 10.2 min.

What about the Cl (in vivo; [6]) of the same molecule?
The Cl was 0.96 L/h/kg.

And the Cmax (in vivo; [6])?
The Cmax was 286 µg/mL.

What about the half-life (in vivo; [6]) of the same molecule?
Its half-life is 12.6 min.

What about the concentration at 0.08 h (in vivo; [7]) of the same molecule?
Its concentration at 0.08 h is 1.77 µg/mL.

What about the concentration at 0.25 h (in vivo; [7]) of the same molecule?
The concentration at 0.25 h was 68.4 µg/mL.

What about the concentration at 0.5 h (in vivo; [7]) of the same molecule?
Its concentration at 0.5 h is 0.12 µg/mL.

What about the concentration at 0.75 h (in vivo; [7]) of the same molecule?
Its concentration at 0.75 h is 30.5 µg/mL.

What about the concentration at 3 h (in vivo; [7]) of the same molecule?
The concentration at 3 h was 0.0123 µg/mL.

And the concentration at 4 h (in vivo; [7])?
Its concentration at 4 h is 0.0102 µg/mL.

What about the AUC (in vivo; 25 mg/kg) of the same molecule?
The AUC was 15.56 mg·h/kg.

What about the “Calc. Conc. (plasma concentrations of Biapenem)” value (in vivo; 25 mg/kg) of the same molecule?
The value was “No Peak”.

And the AUC (in vivo; 100 mg/kg)?
The AUC was 103.55 mg·h/kg.

And the “Change in Log CFU/thigh ± SD @ 24 h” value ([1]; strain ATCC 43816, neutropenic mice)?
The value was −1.09 ± 0.30 Log CFU/thigh.

And the “Change in Log CFU/thigh ± SD @ 24 h” value ([1]; strain KP1004, neutropenic mice)?
The value was “+0.71 ± 0.10 Log CFU/thigh”.

What about the “Change in Log CFU/thigh ± SD @ 24 h” value ([1]; strain KP1061, neutropenic mice) of the same molecule?
The value was “+1.67 ± 0.09 Log CFU/thigh”.

What about the “Change in Log CFU/thigh ± SD @ 24 h” value ([1]; strain KP1074, neutropenic mice) of the same molecule?
The value was “+0.98 ± 0.46 Log CFU/thigh”.

And the MIC (K. pneumoniae strains; ATCC43816, K. pneumoniae strain ATCC 43816, read-out: Biapenem MIC Alone)?
The MIC was 0.25 mg/L (≈ 0.713 µM).

What about the MIC (K. pneumoniae strains; ATCC43816, K. pneumoniae strain ATCC 43816, with Compound I 5 μg/mL, read-out: Biapenem MIC with Compound I (5 μg/mL)) of the same molecule?
The MIC was 0.25 mg/L (≈ 0.713 µM).

What about the MIC (K. pneumoniae strains; K. pneumoniae strain KP1004, read-out: Biapenem MIC Alone) of the same molecule?
The MIC was 16 mg/L (≈ 45.7 µM).

And the MIC (K. pneumoniae strains; K. pneumoniae strain KP1004, with Compound I 5 μg/mL, read-out: Biapenem MIC with Compound I (5 μg/mL))?
The MIC was no more than 0.06 mg/L.

What about the MIC (K. pneumoniae strains; K. pneumoniae strain KP1061, read-out: Biapenem MIC Alone) of the same molecule?
Its MIC is 32 mg/L (≈ 91.3 µM).

What about the MIC (K. pneumoniae strains; K. pneumoniae strain KP1061, with Compound I 5 μg/mL, read-out: Biapenem MIC with Compound I (5 μg/mL)) of the same molecule?
The MIC was no more than 0.06 mg/L.

And the MIC (K. pneumoniae strains; K. pneumoniae strain KP1074, read-out: Biapenem MIC Alone)?
Its MIC is 64 mg/L (≈ 183 µM).

What about the MIC (K. pneumoniae strains; K. pneumoniae strain KP1074, with Compound I 5 μg/mL, read-out: Biapenem MIC with Compound I (5 μg/mL)) of the same molecule?
Its MIC is 0.25 mg/L (≈ 0.713 µM).

What about the MIC (K. pneumoniae strains; four K. pneumoniae strains used in the infection models, read-out: Biapenem MICs) of the same molecule?
Its MIC is 0.25 to 64 mg/L (≈ 0.713 to 183 µM).

For `O=C(O)C[C@@H]1CC[C@H](NC(=O)Cc2cccs2)B(O)O1` [Compound I], which “Time-kill: effect of the addition of Compound I to Biapenem” value (KPC-producing strains) is on record?
Its value is “significant bactericidal synergism”.

And the AUC ([2]; 5 mg/kg IP)?
Its AUC is 3.1 µg·h/mL.

And the Cmax ([2]; 5 mg/kg IP)?
The Cmax was 8.26 µg/mL.

What about the half-life ([2]; 5 mg/kg IP) of the same molecule?
The half-life was 9.6 min.

What about the CL/F ([2]; 5 mg/kg IP) of the same molecule?
The CL/F was 1.61 L/h/kg.

And the AUC ([2]; 15 mg/kg IP)?
Its AUC is 8.3 µg·h/mL.

And the Cmax ([2]; 15 mg/kg IP)?
Its Cmax is 19.5 µg/mL.

And the half-life ([2]; 15 mg/kg IP)?
The half-life was 12 min.

And the CL/F ([2]; 15 mg/kg IP)?
The CL/F was 1.8 L/h/kg.

And the AUC ([2]; 50 mg/kg IP)?
The AUC was 31.4 µg·h/mL.

And the Cmax ([2]; 50 mg/kg IP)?
The Cmax was 67.1 µg/mL.

And the half-life ([2]; 50 mg/kg IP)?
The half-life was 15 min.

And the CL/F ([2]; 50 mg/kg IP)?
Its CL/F is 1.6 L/h/kg.

What about the “CL or CL/F” value ([3]; 2 mg/kg IV) of the same molecule?
Its value is 0.51 ± 0.07 L/h/kg.

And the “CL or CL/F” value ([3]; 6 mg/kg IV)?
The value was 0.50 ± 0.08 L/h/kg.

And the “CL or CL/F” value ([3]; 20 mg/kg IV)?
Its value is 0.48 ± 0.03 L/h/kg.

And the half-life ([3]; cynomolgus, 6 mg/kg IV)?
The half-life was 33 ± 7.2 min.

What about the AUC ([3]; cynomolgus, 20 mg/kg IV) of the same molecule?
The AUC was 41.8 ± 2.53 µg·h/mL.

And the Cmax ([3]; cynomolgus, 20 mg/kg IV)?
Its Cmax is 54.9 ± 3.32 µg/mL.

What about the half-life ([3]; cynomolgus, 20 mg/kg IV) of the same molecule?
The half-life was 113 ± 104 min.

What about the AUC ([3]; 2 mg/kg IV) of the same molecule?
The AUC was 3.96 ± 0.51 µg·h/mL.

What about the Cmax ([3]; 2 mg/kg IV) of the same molecule?
The Cmax was 5.35 ± 0.28 µg/mL.

And the half-life ([3]; 2 mg/kg IV)?
Its half-life is 34.2 ± 1.8 min.

And the AUC ([3]; 6 mg/kg IV)?
The AUC was 12.2 ± 1.89 µg·h/mL.

And the Cmax ([3]; 6 mg/kg IV)?
Its Cmax is 17 ± 1.68 µg/mL.

And the Pharmacokinetic properties ([4]; across all species (mice, rats, dogs, monkeys), single dose)?
The Pharmacokinetic properties was “linear and favorable pharmacokinetic properties”.

What about the “Dose dependence of clearance and volume of distribution” value ([4]; across preclinical species, single dose) of the same molecule?
The value was “independent of dose”.

And the “PK drug interactions between Compound I and Biapenem” value ([4]; coadministration of Biapenem)?
The value was “No PK drug interactions”.

— US11007206B2, “Cyclic boronic acid ester derivatives and therapeutic uses thereof” (Melinta Subsidiary Corp., priority 2012, dated 2021)
